The values that follow come from US5354862A, “Preparation and the use of halopropargylated cyclic quaternary ammonium compounds as antimicrobial agents” (Rohm and Haas Company, priority 1993, dated 1994).

Where two headings read alike, the source gives them in different places.

Common to all, as to assay: Broth two-fold serial dilution MIC test
One assay deals with Staphylococcus aureus. The assay is classed as cell-based, Staphylococcus aureus (ATCC 6538). As to conditions: Saur. The source says:
(§1) A minimum inhibitory concentration (MIC) value is obtained using a broth, two-fold serial dilution test performed as follows: A stock solution or dispersion of the test compound, typically at a concentration of 1%, is made in a 5:3:2 solvent solution of acetone. methanol, and water. A volume of the stock solution is dispensed into culture media to give an initial starting test concentration of 500 ppm compound.
(§2) When the test is ready to be done, each vessel in the dilution series, except the first vessel, contains an equal volume of compound free broth. The first vessel contains twice the volume of broth with the starting concentration of test compound. One half of the broth from the first vessel is transferred to the second vessel- After being mixed, one half the resulting volume is removed from the second vessel and transferred to the third vessel. The entire cycle is repeated sufficiently to give a series of concentrations amounting to 500, 250, 125, 63, 31, 16, 8, and 4, 2, 1, 0.5, 0.25 ppm respectively.
(§3) Each vessel is then inoculated with a cell suspension of the appropriate test organism. Bacteria are grown in broth, fungi on agar slants for a time and at a temperature appropriate to the species being tested, and algae are a mixture of green algae and blue-green bacteria grown in a nutrient media. At the end of the growth period, in the case of bacteria, the broth is vortexed to disperse the cells.
(§4) In the case of fungi, the spores are harvested by pipetting water onto the slant and dislodging the spores with a sterile loop. The cell/spore suspension is standardized by controlling incubation time, temperature, and the volume of the diluent. The suspension is then used to inoculate the vessels containing the broth compound.
(§5) The vessels are then incubated at the appropriate temperature. After the incubation, the vessels are examined for growth/no growth. The minimum inhibitory concentration (MIC) is defined as the lowest concentration of compound that results in complete inhibition of growth of the test organism.
2. Staphylococcus aureus

The next assay relates to Pseudomonas aeruginosa. The format is cell-based, Pseudomonas aeruginosa (ATCC 15442). As to conditions: Psae.
From the text: as §1, §2, §3, §4, §5
1. Pseudomonas aeruginosa

Another assay has as its system Aspergillus niger. The format is cell-based, Aspergillus niger (ATCC 6275). As to conditions: Anig, TSB media.
From the text: as §1, §2, §3, §4, §5
4. Aspergillus niger 6275 Anig

Another assay deals with Escherichia coli. The format is cell-based, Escherichia coli (ATCC 11229). As to conditions: Ecol.
From the text: as §1, §2, §3, §4, §5

[1] abbreviates: Staphylococcus aureus, Table 2, M9G media, read-out: MIC.
Where [2] appears, read: Staphylococcus aureus, Table 2, TSB media, read-out: MIC.
[3] abbreviates: Pseudomonas aeruginosa, Table 2, M9G media, read-out: MIC.
Setting [4] is: Pseudomonas aeruginosa, Table 2, TSB media, read-out: MIC.
Where [5] appears, read: Aspergillus niger, Table 2, read-out: MIC.
The mark [6] stands for this setting: Escherichia coli, Table 2, TSB media, read-out: MIC.
Where [7] appears, read: Escherichia coli, Table 2, M9G media, read-out: MIC.

On to `CCCCCCCCCCCCCC[N+]1(CC#CI)CCCC1` [Compound 6, 1-Tetradecyl-1-(3-Iodopropargyl)-Pyrrolidinium 4-Methylbenzenesulfonate], for which the MIC was found to be 0.5 µg/mL in the assay with Staphylococcus aureus (setting [1]); 0.5 µg/mL in the assay on Staphylococcus aureus (setting [2]); 0.5 µg/mL with Staphylococcus aureus (Staphylococcus aureus, Table 3 comparison, M9G media, read-out: MIC); 0.5 µg/mL with Staphylococcus aureus (Staphylococcus aureus, Table 3 comparison, TSB media, read-out: MIC); 4 µg/mL in the assay on Pseudomonas aeruginosa (Pseudomonas aeruginosa, Table 3 comparison, M9G media, read-out: MIC); 4 µg/mL in the assay on Pseudomonas aeruginosa (Pseudomonas aeruginosa, Table 3 comparison, TSB media, read-out: MIC). For the same compound, the MIC is 4 ppm in the assay on Pseudomonas aeruginosa (Table 2, M9G media); 4 ppm against Pseudomonas aeruginosa (Table 2, TSB media); less than 0.25 µg/mL in the assay on Aspergillus niger (Aspergillus niger, Table 3 comparison, read-out: MIC); less than 0.25 ppm against Aspergillus niger (Table 2); 4 ppm in the assay with Escherichia coli (Table 2, M9G media); 4 ppm with Escherichia coli (Table 2, TSB media). Also, the MIC in the assay with Escherichia coli (Table 3 comparison, M9G media) is 4 ppm; against Escherichia coli (Table 3 comparison, TSB media), 4 ppm.
`CCCCCCCCCCCCCC[N+]1(CC#CI)CCCCC1C` (stereo not drawn) [Compound 54, 1-(tetradecyl)-1-(3-iodopropargyl)-2-methylpiperidinium 4methylbenzenesulfonate]: the MIC with Staphylococcus aureus (Table 2, M9G media) is on record as 1 ppm; with Staphylococcus aureus (Table 2, TSB media), 8 ppm; against Pseudomonas aeruginosa (Table 2, M9G media) it was 250 ppm; in the assay with Pseudomonas aeruginosa (Table 2, TSB media), 125 ppm; with Aspergillus niger (Table 2), 1 ppm; against Escherichia coli (Table 2, M9G media), 8 ppm. In addition, the MIC against Escherichia coli (Table 2, TSB media) worked out at 16 ppm.
`OCCCCCCCCCCC[N+]1(CC#CI)CCCCC1` [Compound 19, 1-(11-hydroxyundecyl)-1-(3-iodopropargyl)-piperidinium 4-methylbenzenesulfonate]: the MIC came out at 2 µg/mL with Staphylococcus aureus (setting [1]); 16 µg/mL in the assay on Staphylococcus aureus (setting [2]); 250 µg/mL in the assay with Pseudomonas aeruginosa (setting [3]); 250 µg/mL in the assay with Pseudomonas aeruginosa (setting [4]); 32 µg/mL in the assay with Aspergillus niger (setting [5]); 32 µg/mL with Escherichia coli (setting [6]).
For `CCCCCCCCCCOC(=O)C[N+]1(CC#CI)CCOCC1` [Compound 67, 4-(decyloxycarbonyl)methyl-4-(3-iodopropargyl)-morpholinium benzenesulfonate], the MIC in the assay on Staphylococcus aureus (Table 2, M9G media) came to 0.5 ppm; in the assay on Staphylococcus aureus (Table 2, TSB media), 8 ppm; against Pseudomonas aeruginosa (Table 2, M9G media), 125 ppm; in the assay on Pseudomonas aeruginosa (Table 2, TSB media), 250 ppm; in the assay on Aspergillus niger (Table 2), 125 ppm; in the assay with Escherichia coli (Table 2, M9G media), 2 ppm. For the same compound, in the assay on Escherichia coli (Table 2, TSB media), the MIC came out at 8 ppm.
Take `CCCCCCCCCCCCCC[N+]1(CC#CI)CCC(C)CC1` (stereo not drawn) [Compound 52, 1-(tetradecyl)-1-(3-iodopropargyl)-4-methylpiperidinium benzenesulfonate]: the MIC in the assay on Staphylococcus aureus (setting [1]) is less than 0.25 µg/mL; in the assay on Staphylococcus aureus (setting [2]), less than 0.25 µg/mL; in the assay on Pseudomonas aeruginosa (setting [3]) it was 16 µg/mL; in the assay with Pseudomonas aeruginosa (setting [4]), 16 µg/mL; with Aspergillus niger (setting [5]), less than 0.25 µg/mL; in the assay on Escherichia coli (setting [7]), 8 µg/mL. The MIC in the assay with Escherichia coli (setting [6]) turned out to be 2 µg/mL.
With `CCCCCCCCCCCCCCCC[N+]1(CC#CI)CC(C)OC(C)C1` (stereo not drawn) [Compound 47, 4-hexadecyl-4-(3-iodopropargyl)-2,6-dimethylmorpholinium benzenesulfonate], the MIC against Staphylococcus aureus (Table 2, M9G media) was less than 0.25 ppm; against Staphylococcus aureus (Table 2, TSB media), less than 0.25 ppm; against Pseudomonas aeruginosa (Table 2, M9G media) it was 8 ppm; in the assay with Pseudomonas aeruginosa (Table 2, TSB media), 8 ppm; in the assay with Aspergillus niger (Table 2), 0.5 ppm; against Escherichia coli (Table 2, M9G media), 2 ppm. This compound also had an MIC against Escherichia coli (Table 2, TSB media) of 2 ppm.
In the case of `CCCCCCCCCCCC[N+]1(CC#CI)CCCC1` [Compound 30, 1-dodecyl-1-(3-iodopropargyl)-pyrrolidinium benzenesulfonate], the MIC in the assay with Staphylococcus aureus (Table 2, M9G media) was determined as 1 ppm; in the assay with Staphylococcus aureus (Table 2, TSB media), 1 ppm; in the assay with Pseudomonas aeruginosa (Table 2, M9G media) it was 63 ppm; in the assay with Pseudomonas aeruginosa (Table 2, TSB media) it was 63 ppm; with Aspergillus niger (Table 2), 1 ppm; with Escherichia coli (Table 2, M9G media) it was 2 ppm. In the assay on Escherichia coli (Table 2, TSB media), this compound returned an MIC of 16 ppm.
On to `CCCCCCCCCCCCCC[N+]1(CC#CI)CCCCCC1` [Compound 45, 1-tetradecyl-1-(3-iodopropargyl)-hexamethyleneiminium 4-methylbenzenesulfonate], for which the MIC in the assay on Staphylococcus aureus (setting [1]) was less than 0.25 µg/mL; in the assay with Staphylococcus aureus (setting [2]) it was less than 0.25 µg/mL; in the assay with Pseudomonas aeruginosa (setting [3]) it was 4 µg/mL; with Pseudomonas aeruginosa (setting [4]), 4 µg/mL; in the assay on Aspergillus niger (setting [5]) it was 1 µg/mL; in the assay on Escherichia coli (setting [7]) it was less than 0.25 µg/mL. The MIC in the assay on Escherichia coli (setting [6]) was less than 0.25 µg/mL.
Take `IC#CC[N+]1(Cc2ccccc2)CCOCC1` [Compound 73, 4-benzyl-4-(3-iodopropargyi)-morpholinium 4-methylbenzenesulfonate]: the MIC in the assay on Staphylococcus aureus (setting [1]) is 125 µg/mL; with Staphylococcus aureus (setting [2]) it was 250 µg/mL; in the assay on Pseudomonas aeruginosa (setting [3]), more than 500 µg/mL; with Pseudomonas aeruginosa (setting [4]), more than 500 µg/mL; with Aspergillus niger (setting [5]), 125 µg/mL; with Escherichia coli (setting [7]) it was 125 µg/mL. Besides, the MIC with Escherichia coli (setting [6]) came out at 125 µg/mL.
For `C[N+]1(CC#CI)CCOCC1` [Compound 29, 4-methyl-4-(3-iodopropargl)-morpholinium 4-methylbenzenesulfonate], the MIC in the assay with Staphylococcus aureus (setting [1]) came to 500 µg/mL; with Staphylococcus aureus (setting [2]) it was 500 µg/mL; with Pseudomonas aeruginosa (setting [3]), 500 µg/mL; with Pseudomonas aeruginosa (setting [4]), 500 µg/mL; in the assay with Aspergillus niger (setting [5]), 500 µg/mL; with Escherichia coli (setting [7]) it was 250 µg/mL. Besides, the MIC in the assay on Escherichia coli (setting [6]) amounted to 125 µg/mL.
Consider `CCCCCCOC(=O)CCCCC[N+]1(CC#CI)CCOCC1` [Compound 83, 4-[5-(hexyloxycarbonyl)]pentyl-4-(3-iodopropargyl)-morpholinium methanesulfonate], for which the MIC is reported as 4 ppm in the assay on Staphylococcus aureus (Table 2, M9G media); 8 ppm in the assay on Staphylococcus aureus (Table 2, TSB media); more than 500 ppm in the assay on Pseudomonas aeruginosa (Table 2, M9G media); more than 500 ppm with Pseudomonas aeruginosa (Table 2, TSB media); 125 ppm in the assay on Aspergillus niger (Table 2); 16 ppm in the assay on Escherichia coli (Table 2, M9G media). The same compound yielded an MIC against Escherichia coli (Table 2, TSB media) of 32 ppm.
Regarding `CC[N+]1(CC#CI)CCOCC1` [Compound 94, 4-ethyl-4-(3-iodopropargyl)-morpholinium methanesulfonate], the MIC with Staphylococcus aureus (setting [1]) is 500 µg/mL; with Staphylococcus aureus (setting [2]), more than 500 µg/mL; in the assay with Pseudomonas aeruginosa (setting [3]), more than 500 µg/mL; in the assay on Pseudomonas aeruginosa (setting [4]) it was more than 500 µg/mL; in the assay with Aspergillus niger (setting [5]), more than 500 µg/mL; in the assay on Escherichia coli (setting [7]), 125 µg/mL. Also, the MIC with Escherichia coli (setting [6]) came to 125 µg/mL.
`CCCCCCCCCCCCOC(=O)C[N+]1(CC#CI)CCCC1` [Compound 64, 1-(dodecyloxycarbonyl)methyl-1-(3-iodopropargyl)-pyrrolidinium benzenesulfonate]: the MIC against Staphylococcus aureus (Table 2, M9G media) was found to be 0.25 ppm; with Staphylococcus aureus (Table 2, TSB media), 0.25 ppm; with Pseudomonas aeruginosa (Table 2, M9G media), 32 ppm; in the assay with Pseudomonas aeruginosa (Table 2, TSB media) it was 32 ppm; in the assay on Aspergillus niger (Table 2) it was 8 ppm; with Escherichia coli (Table 2, M9G media), 1 ppm. In addition, the MIC in the assay on Escherichia coli (Table 2, TSB media) was determined as 4 ppm.
For the compound `CCCCCCCCCCCCCC[N+]1(CC#CI)CCCCC1` [Compound 85, 1-tetradecyl-1-(3-iodoproparygyl)-piperidinium n-butylsulfonate], the MIC is reported as 0.25 ppm in the assay on Staphylococcus aureus (Table 2, M9G media); 0.25 ppm with Staphylococcus aureus (Table 2, TSB media); 8 ppm with Pseudomonas aeruginosa (Table 2, M9G media); 32 ppm with Pseudomonas aeruginosa (Table 2, TSB media); 4 ppm in the assay on Aspergillus niger (Table 2); 1 ppm in the assay with Escherichia coli (Table 2, M9G media). The compound further came in with an MIC against Escherichia coli (Table 2, TSB media) of 4 ppm.
Consider `CCCCCCCC[N+]1(CC#CI)CCOCC1` [Compound 92, 4-n-octyl-4-(3-iodopropargyl)-morpholinium methanesulfonate], for which the MIC is 8 µg/mL with Staphylococcus aureus (setting [1]); 16 µg/mL with Staphylococcus aureus (setting [2]); more than 500 µg/mL in the assay on Pseudomonas aeruginosa (setting [3]); more than 500 µg/mL in the assay on Pseudomonas aeruginosa (setting [4]); 125 µg/mL in the assay with Aspergillus niger (setting [5]); 32 µg/mL in the assay with Escherichia coli (setting [7]). The MIC in the assay on Escherichia coli (setting [6]) amounted to 64 µg/mL.
